Experimental data as given in patent publication US5470832A, “Inhibitors of geranylgeranyl-protein transferase” (Merck & Co., Inc., priority 1994, dated 1995).

Assays:
Format in all cases: biochemical
bGGPTase-I = biological target: T1, bGGPTase-I (Bos taurus, UniProt P29702+Q5EAD5); assay: In vitro inhibition of geranylgeranyl protein transferase type I purified from bovine brain (transferase assay); settings: 500 nM Ras-CAIL, 100 nM geranylgeranyl diphosphate, 30 °C
T1 construct: Cerebral lobes from bovine brains were homogenized in lysis buffer; from tissue; host or cells: bovine brain (cerebral lobes)
Procedure: Purification of isoprenyl-protein transferases. All purification steps were performed at 4 ° C. Cerebral lobes from bovine brains were homogenized in lysis buffer containing 50 mM Tris-Cl, pH 8.0, 1 mM EGTA, 1 mM MgCl2, 5 mM dithiothreitol, 10 μg/mL aprotinin, 0.5 mM phenylmethyl sulfonyl fluoride (PMSF), 2 μg/mL antipain and 2 μg/mL leupeptin (M.D. Schaber et al. J. Biol. Chem., 265:14701 (1990)). Cellular debris and membranes were removed by centrifugation (10 000 g for 20 rain followed by 100 000 g for 30 minutes). The supematant was loaded directly onto a column (30 cm × 20 cm^2) of DEAE-Sephacel that had been equilibrated with lysis buffer. The column was washed with the same buffer and proteins were eluted with a linear gradient of NaCl (0-500 mM, 1 L+L) in the same buffer. Fractions (20 mL) were collected and those containing different transferase activities were pooled separately. This procedure resolved FTase and GGPTase-II from GGPTase-I. Each pool was then applied to an ω-Aminooctyl agarose colurctn (30 cm×4.9 cm^2) and eluted with a linear gradient of NaCl (0-500 mM, 500 mL+500 mL) in lysis buffer. Fractions containing both FTase and GGPTase-II were pooled. The GGPTase-I (termed "bGGPTase-I") so obtained was utilized in the assay described below.
Molecular biological manipulations. To construct the C-terminus CAAX box routants, pUC-[L68]RAS1(term.) was digested with the restriction enzymes HincII and NarI to create a vector into which oligonucleotides containing new C-terminal sequences could be ligated. Except where indicated, the amino acids preceding the CAAX sequence are SLK. […]
Transferase Assays. […] Filters were washed four times with 2 mL aliquots of 100% ethanol, mixed with scintillation fluid (10 mL) and then counted in a Beckman LS3801 scintillation counter.
(§1) For inhibition studies, assays were run as described above, except inhibitors were prepared as concentrated solutions in 100% dimethyl sulfoxide and then diluted 20-fold into the enzyme assay mixture. IC50 values were determined with both transferase substrates near KM concentrations. […]

FPTase = biological target: T2, FPTase (Homo sapiens, UniProt P49354+P49356); assay: In vitro inhibition of recombinant farnesyl-protein transferase (transferase assay); settings: 650 nM Ras-CVLS, 100 nM farnesyl diphosphate, 30 °C
T2 construct: made in house
From the text: Molecular biological manipulations. To construct the C-terminus CAAX box routants, pUC-[L68]RAS1(term.) was digested with the restriction enzymes HincII and NarI to create a vector into which oligonucleotides containing new C-terminal sequences could be ligated. Except where indicated, the amino acids preceding the CAAX sequence are SLK. To simplify the nomenclature, [L68]RAS1 (term.)SLKCVLS (J.B. Gibbs et al., Proc. Natl. Acad Sci. U.S.A., 86:6630 (1989)) will be referred to as Ras-CVLS, and this convention is used for all other mutants. The substrate for Frase was Ras-CVLS. The substrate for GGPTase-I was Ras-CAIL.
Transferase Assays. Isoprenyl-protein transferase activity assays were carried out at 30 ° C. unless noted otherwise. A typical reaction contained (in a final volume of 50 μL): [^3 H]farnesyl diphosphate or [^3 H]geranylgeranyl diphosphate, Ras protein, 50 mM HEPES, pH 7.5, 5 mM MgCl2, 5 mM dithiothreitol and isoprenyl-protein transferase. The FPTase employed in the assay was prepared by recombinant expression as described in Omer, C. A., Kral, A. M., Diehl, R. E., Prendergast, G. C., Powers, S., Allen, C. M., Gibbs, J. B. and Kohl, N. E. (1993) Biochemistry 32:5167-5176. After thermally pre-equilibrating the assay mixture in the absence of enzyme, reactions were initiated by the addition of isoprenyl-protein transferase and stopped at timed intervals (typically 15 min) by the addition of 1M HCl in ethanol (1 mL). The quenched reactions were allowed to stand for 15 m (to complete the precipitation process). After adding 2 mL of 100% ethanol, the reactions were vacuum-filtered through Whatman GF/C filters. Filters were washed four times with 2 mL aliquots of 100% ethanol, mixed with scintillation fluid (10 mL) and then counted in a Beckman LS3801 scintillation counter.
as §1

hGGPTase-I = biological target: T3, hGGPTase-I (Homo sapiens, UniProt P49354+P53609); assay: In vitro inhibition of recombinant human geranylgeranyl protein transferase type I (transferase assay); settings: 500 nM Ras-CAIL, 100 nM geranylgeranyl diphosphate, 30 °C
T3 construct: made in house; host or cells: E. coli BL21(DE3), strain RD578
From the text: Cloning of human GGPTase-I βGGI subunit cDNAs. Approximately 1 nmol of GGPTase-I-I purified from bovine brain as described in Moomaw, J.F. and ,Casey, P.J. (1992) J Biol Chem 267:17438-17443, was subjected to electrophoresis on a 11% SDS-polyacrylamide gel and transferred to nitrocellulose paper. The nitrocellulose paper was then stained with Poneeau S to localize the subunit polypeptides. The 48 kDa and 43 kDa bands were excised from the nitroeellulose and sent to Harvard Microchem (Cambridge, Mass.) for processing. High-confidence sequences of five βGGI subunit peptides were obtained. The sequences of these peptides are listed below:
Two degenerate oligonucleotide primers [GCTC-GGATCC-C-(A/G)AA-(A/G)TT-NGT-(A/G)TA-(T/C)TG-(A/G)A (SEQ.ID.NO.:6) and GTCGG-GAATTC-ACN-AT(A/C/T)-GCN-TT(C/T)-TT(C/T)-GC (SEQ.ID.NO.:7)] were synthesized based on portions of two βGGI subunit peptide sequences [IFQYTNFEK (SEQ.ID.NO.:3) (antisense oligo) and TIAFFLSGLDMLD (SEQ.ID.NO.:I) respectively]. The polymerase chain reaction (PCR) (Saiki, R. K., Gelfand, D. H., Stoffel, S., Scharf, S. J., Higuchi, R., Horn, G. T., Mullis, K. B. and Erlich, H. A. (1988) Science 239:[…]) was performed using DNA obtained from a bovine brain eDNA library as template (Vogel, U.S., Dixon, R. A. F., Schaber, M.D., Diehl, R. E., Marshall, M. S., Scoinick, E. M., Sigal, I. S. and Gibbs, J. B. (1988) Nature 335:90-93). […]

| IC50 (bGGPTase-I) | IC50 (FPTase) | IC50 (hGGPTase-I) | SMILES |
| --- | --- | --- | --- |
| 1.9 nM | 800 nM | 23 nM | CC[C@H](C)[C@H](NC(=O)[C@@H](NC[C@@H](N)CS)C(C)C)C(=O)N[C@@H](CC(C)C)C(=O)O [N-(2(R)-amino-3-mercaptopropyl)-valyl-isoleucyl-leucine] |
| 37 nM | 450 nM | – | CC[C@H](C)[C@@H](CO[C@H](C(=O)N[C@@H](CC(C)C)C(=O)O)C(C)C)NC[C@@H](N)CS [N-[2(S)-(2(S)-(2(R )-amino-3-mercaptopropylamino)-3(S)-methylpentyloxy)-3-methylbutanoyl]-leucine] |

| SMILES | IC50 (bGGPTase-I) | IC50 (FPTase) | IC50 (hGGPTase-I) |
| --- | --- | --- | --- |
| CC(C)C[C@H](NC(=O)[C@@H](/C=C/[C@@H](NC[C@@H](N)CS)C(C)C)C(C)C)C(=O)O [5(S)-[2(R)-amino-3-mercaptopropylamino]-6-methyl(R)-i-propyl-3,4-E-heptenoyl-leucine] | 21 nM | 70 nM | – |
